Patent US9399192B2, “Carbon dioxide absorber and carbon dioxide separation/recovery method using the absorber” (ASAHI KASEI KABUSHIKI KAISHA, priority 2011, dated 2016)
Read-outs that look alike come from different tables or passages of the source.

Assays:
[1] = Evaluation of reactivity of aqueous amine solutions with carbon dioxide; assay type: physicochemical; conditions: for Absorbed amount at 30° C. (moles CO2/moles N) / Absorbed amount at 90° C. (moles CO2/moles N): aqueous amine 1.81 mol/L (monoamine) or 0.91 mol/L (diamine), CO2 300 mL/min 15 minutes; for CO2 desorption performance (moles CO2/moles N): difference between absorbed amount at 30° C. and at 90° C.
Experimental: Amine compounds were mixed with water to prepare aqueous amine solutions. At this time, the concentration of monoamine compounds having one amino group was adjusted to 1.81 mol/L, while the concentration of diamine compounds having two amino groups was adjusted to 0.91 mol/L. Carbon dioxide gas was blown into 25 mL aliquots of each aqueous amine solution for 15 minutes at 300 mL/min to allow the amine compound to react with the carbon dioxide. The reactions were carried out at temperatures of 30° C. and 90° C., and the reacted amount was calculated from element ratios of C and N before and after the reaction as measured with the Model TOC-VCP and Model TNM-1 Total Organic Carbon Analyzers (Shimadzu Corp.).
The absorbed amounts are represented by the number of moles of carbon dioxide reacting with respect to 1 mole of amino group, or in other words, moles CO2/moles N.
(§1) Table 7 indicates a comparison of performance when used as an amine compound for a carbon dioxide absorber. Those parameters evaluated as indicators of performance consisted of absorbed amount at 30° C., absorbed amount at 90° C. and heat of reaction. Furthermore, the difference between the absorbed amount at 30° C. and the absorbed amount at 90° C. was taken to represent carbon dioxide desorption performance. Values for heat of reaction are shown in Table 7 after converting to heat of reaction (kJ/mol) per 1 mole of reacted carbon dioxide using a calibration curve obtained when the reacted amount of the amino groups of each amine compound and carbon dioxide reached 0.10 mol CO2/mol N.

[2] = Evaluation of heat of reaction of aqueous amine solutions (C-80 reaction calorimeter, FIG. 9C); assay type: physicochemical; conditions: 30° C., per 1 mole of reacted CO2 at reacted amount 0.10 mol CO2/mol N
Experimental: * Evaluation of Heat of Reaction Heat of reaction was measured using the apparatus shown in FIG. 9C with the Model C-80 Reaction calorimeter (Setaram Inc.) 936. A gas circulation normal pressure type cell (stainless steel 31/1415) was used for the cell, and the gas inlet port and outlet port were connected as shown in FIG. 9C. 4 g aliquots of each aqueous amine compound solution were placed in the cell after adjusting to the same concentrations as those used in the aforementioned evaluation of reactivity ([…] in the case of monoamine compounds and […] in the case of diamine compounds) and the cell was then placed in the C-80 Reaction calorimeter. The cell temperature was adjusted to 30° C. and allowed to stabilize. 50 mL of carbon dioxide were injected into a gas syringe 930 from carbon dioxide supplied from a carbon dioxide cylinder 929 by closing a valve 932 followed by opening the valve 932. The reacted amount was then measured based on the change in internal pressure measured with a pressure gauge 933 while measuring the amount of heat generated with the C-80 Reaction calorimeter. The amount of heat generated and reacted amount were calculated in advance using a calibration curve of heat of compression and internal pressure determined in the absence of a sample.
as §1

[3] = assay type: physicochemical
Description: Thus, Compound A is extremely useful since it is able to reduce volatilization loss when contacting a gas. In addition, the weak basicity per amino group is attributable to the diamine structure. […]. Thus, Compound A is extremely useful since it allows a wide range of materials to be selected for use in the reactor.

[4] = pH 0.4
physchem = conditions: aqueous solution
[5] = pKb of amine compounds / pKa of weakly acidic compounds calculated from pH of aqueous solution; conditions: amine compound, aqueous solution at 30° C., calculated from pH of 0.4 M aqueous solution

| Structure (SMILES) | Absorbed amount at 30° C. (moles CO2/moles N) [1] | Absorbed amount at 90° C. (moles CO2/moles N) [1] | CO2 desorption performance (moles CO2/moles N) [1] | Heat of reaction [2] | pKb [5] | also measured |
| --- | --- | --- | --- | --- | --- | --- |
| OCCNCC(O)CNCCO [BHEP, 1,3-bis(2-hydroxyethylamino)propan-2-ol] | 0.516 moles CO2/moles N | 0.214 moles CO2/moles N | 0.302 moles CO2/moles N | 16.1 kcal/mol |  | vapor pressure [3]: 0.04 mPa; pKb [4]: 6.3 |
| CC(O)CNCC(O)CNCC(C)O (centres unmarked) [BHPP, 1,3-bis(2-hydroxypropylamino)propan-2-ol] | 0.498 moles CO2/moles N | 0.213 moles CO2/moles N | 0.285 moles CO2/moles N | 16.3 kcal/mol |  |  |
| OB(O)O [Boric acid] |  |  |  |  |  | pKa (physchem): 9.2 |
| NCC(O)CN [DAP, 1,3-diaminopropan-2-ol] | 0.601 moles CO2/moles N | 0.409 moles CO2/moles N | 0.192 moles CO2/moles N | 20.9 kcal/mol |  |  |
| OCCNCCO [DEA, Diethanolamine] |  |  |  |  |  | pKb [4]: 5.4 |
| CCNCCO [EAE, 2-ethylaminoethanol] | 0.631 moles CO2/moles N | 0.279 moles CO2/moles N | 0.352 moles CO2/moles N | 20.8 kcal/mol | 4.4 |  |
| NC(CO)CO [Example 2A13PD, 2-amino-1,3-propanediol] |  |  |  |  | 5.6 |  |
| CC(O)CNCC(O)CNCCO (centres unmarked) [HEHPP, 1-(2-hydroxyethylamino)-3-(2-hydroxypropylamino)propan-2-ol] | 0.506 moles CO2/moles N | 0.213 moles CO2/moles N | 0.293 moles CO2/moles N | 16.1 kcal/mol |  |  |
| CC(C)NCCO [IPAE, 2-isopropylaminoethanol] |  |  |  |  | 4.1 |  |
| NCCO [MEA, Monoethanolamine] | 0.614 moles CO2/moles N | 0.400 moles CO2/moles N | 0.214 moles CO2/moles N | 21.6 kcal/mol |  | pKb [4]: 4.7 |
| C1CNCCN1 [Pz, piperazine] |  |  |  |  | 4.8 |  |
| CCOB(OCC)OCC [TEB, Triethylborate] |  |  |  |  |  | pKa (physchem): 8.1 |
| COB(OC)OC [TMB, Trimethylborate] |  |  |  |  |  | pKa (physchem): 8.7 |
